# In patent US20230089867A1, “CYCLIC PENTAMER COMPOUNDS AS PROPROTEIN CONVERTASE SUBTILISIN/KEXIN TYPE 9 (PCSK9) INHIBITORS FOR THE TREATMENT OF METABOLIC DISORDER” (Novartis AG, priority 2018, published 2023):
# Biological target: human PCSK9 (Homo sapiens, UniProt Q8NBP7)
# Assay: PCSK9 ligand binding TR-FRET assay (interference with binding of human PCSK9 to human LDLR)
# Details: for Max % inhibition: PCSK9 FRET assay, efficacy (Amax), 100% = 1 uM unlabeled human PCSK9, 0% = DMSO; for IC50: TR-FRET, human PCSK9 Alexa Fluor 647 / human LDLR extracellular domain-Europium Kryptate, read-out: PCSK9 FRET Assay IC50
# Outline: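 Threefold compound dilutions were pre-incubated 30 min with PCSK9, after which 4 nM Europium Kryptate-tagged human LDLR ectodomain was added for a further 2 h.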
# human PCSK9, sequence (Q8NBP7 153-692): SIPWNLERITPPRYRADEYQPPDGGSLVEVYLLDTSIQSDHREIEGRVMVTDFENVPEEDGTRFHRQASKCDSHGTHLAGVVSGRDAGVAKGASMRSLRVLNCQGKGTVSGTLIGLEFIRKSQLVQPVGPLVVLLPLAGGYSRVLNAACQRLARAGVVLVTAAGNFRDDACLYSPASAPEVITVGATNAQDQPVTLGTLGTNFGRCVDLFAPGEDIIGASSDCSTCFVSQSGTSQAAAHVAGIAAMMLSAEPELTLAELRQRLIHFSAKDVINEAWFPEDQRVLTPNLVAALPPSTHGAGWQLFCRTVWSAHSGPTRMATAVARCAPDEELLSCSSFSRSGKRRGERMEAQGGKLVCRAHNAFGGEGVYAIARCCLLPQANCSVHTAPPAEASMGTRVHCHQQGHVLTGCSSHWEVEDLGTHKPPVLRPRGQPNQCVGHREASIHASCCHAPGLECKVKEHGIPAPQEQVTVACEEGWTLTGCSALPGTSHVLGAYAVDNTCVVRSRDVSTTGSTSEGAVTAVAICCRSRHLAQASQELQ
# human PCSK9, sequence (Q8NBP7 31-152 partner limits assumed): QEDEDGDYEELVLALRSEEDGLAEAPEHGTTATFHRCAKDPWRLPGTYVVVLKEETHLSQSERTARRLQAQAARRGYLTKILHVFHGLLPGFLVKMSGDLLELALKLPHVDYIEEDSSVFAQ
Max % inhibition [%],IC50 [nM],SMILES
87.34,1.3,"COC[C@@H]1NC(=O)[C@H](C)N(Cc2ccc(Cl)cc2Oc2ccc(-c3cnc(C(C)O)n3C)cc2)C(=O)C[C@@H](Cc2ccccc2)C(=O)N(C)[C@H]2CCCC[C@@H]2NC(=O)C[C@H](Cc2ccc(Cl)cc2)N(C)C1=O (stereo partly drawn) [Compound 242, (4S,7S,10S,14R,16aS,20aS)-14-benzyl-11-(4-chloro-2-(4-(2-(1-hydroxyethyl)-1-methyl-1H-imidazol-5-yl)phenoxy)benzyl)-4-(4-chlorobenzyl)-7-(methoxymethyl)-5,10,16-trimethylhexadecahydrobenzo[l][1,4,7,11,14]pentaazacyclooctadecine-2,6,9,12,15(3H)-pentaone]"
54.06,9.4,"COC[C@@H]1NC(=O)C(C)N(Cc2ccc(Cl)cc2Oc2ccc(-c3cnc(CN(C)C)n3C)cc2)C(=O)C[C@@H](C)C(=O)N(C)[C@@H](CC(C)C)CNC(=O)C[C@H](Cc2ccc(Cl)cc2)N(C)C1=O (stereo partly drawn) [Compound 184, (5S,8S,13S,16R)-1-(4-chloro-2-(4-(2-((dimethylamino)methyl)-1-methyl-1H-imidazol-5-yl)phenoxy)benzyl)-8-(4-chlorobenzyl)-13-isobutyl-5-(methoxymethyl)-2,7,14,16-tetramethyl-1,4,7,11,14-pentaazacyclooctadecane-3,6,10,15,18-pentaone]"
90.76,8.4,"COC[C@@H]1NC(=O)[C@H](C)N(Cc2ccc(Cl)cc2Oc2ccc(-c3cncc(C4CCNCC4)c3)cc2)C(=O)C[C@@H](Cc2ccccc2)C(=O)N(C)[C@@H](C)CNC(=O)C[C@H](Cc2ccc(Cl)cc2)N(C)C1=O [Compound 137, (2S,5S,8S,13S,16R)-16-benzyl-1-(4-chloro-2-(4-(5-(piperidin-4-yl)pyridin-3-yl)phenoxy)benzyl)-8-(4-chlorobenzyl)-5-(methoxymethyl)-2,7,13,14-tetramethyl-1,4,7,11,14-pentaazacyclooctadecane-3,6,10,15,18-pentaone]"
106.00,10.1,"COC[C@@H]1NC(=O)[C@H](C)N(Cc2ccc(Cl)cc2Oc2ccc(-c3cnc(C(C)N4CCCC4)n3C)cc2)C(=O)C[C@@H](C)C(=O)N(C)[C@@H](C)CNC(=O)C[C@H](Cc2ccc(Cl)cc2)N(C)C1=O (stereo in doubt) [Compound 103, (2S,5S,8S,13S,16R)-1-(4-chloro-2-(4-(1-methyl-2-((S)-1-(pyrrolidin-1-yl)ethyl)-1H-imidazol-5-yl)phenoxy)benzyl)-8-(4-chlorobenzyl)-5-(methoxymethyl)-2,7,13,14,16-pentamethyl-1,4,7,11,14-pentaazacyclooctadecane-3,6,10,15,18-pentaone]"
80.60,2.1,"CCn1c(-c2ccc(Oc3cc(Cl)ccc3CN3C(=O)C[C@@H](Cc4ccccc4)C(=O)N(C)[C@@H](C)CNC(=O)C[C@H](Cc4ccc(Cl)cc4)N(C)C(=O)[C@H](COC)NC(=O)[C@@H]3C)cc2)cnc1CN1CCCC1 [Compound 300, (2S,5S,8S,13S,16R)-16-benzyl-1-(4-chloro-2-(4-(1-ethyl-2-(pyrrolidin-1-ylmethyl)-1H-imidazol-5-yl)phenoxy)benzyl)-8-(4-chlorobenzyl)-5-(methoxymethyl)-2,7,13,14-tetramethyl-1,4,7,11,14-pentaazacyclooctadecane-3,6,10,15,18-pentaone]"
84.60,135,"COC[C@@H]1NC(=O)[C@H](C)N(Cc2ccc(Cl)cc2Oc2ccc(-n3cnc(C(=O)NC(C)C)c3C)cc2)C(=O)C[C@@H](Cc2ccccc2)C(=O)N(C)[C@@H](C)CNC(=O)C[C@H](Cc2ccc(Cl)cc2)N(C)C1=O [Compound 163, 1-(4-(2-(((2S,5S,8S,13S,16R)-16-benzyl-8-(4-chlorobenzyl)-5-(methoxymethyl)-2,7,13,14-tetramethyl-3,6,10,15,18-pentaoxo-1,4,7,11,14-pentaazacyclooctadecan-1-yl)methyl)-5-chlorophenoxy)phenyl)-N-isopropyl-5-methyl-1H-imidazole-4-carboxamide]"
92.57,0.5,"COC[C@@H]1NC(=O)[C@H](C)N(Cc2ccc(Cl)cc2Oc2ccc(-c3cnc(CN4CCCC4)n3C)c(F)c2)C(=O)C[C@@H](Cc2ccccc2)C(=O)N(C)[C@@H](C)CNC(=O)C[C@H](Cc2ccc(Cl)cc2)N(C)C1=O [Compound 72, (2S,5S,8S,13S,16R)-16-benzyl-1-(4-chloro-2-(3-fluoro-4-(1-methyl-2-(pyrrolidin-1-ylmethyl)-1H-imidazol-5-yl)phenoxy)benzyl)-8-(4-chlorobenzyl)-5-(methoxymethyl)-2,7,13,14-tetramethyl-1,4,7,11,14-pentaazacyclooctadecane-3,6,10,15,18-pentaone]"
60.78,6.1,"C=Cc1ncc(-c2ccc(Oc3cc(Cl)ccc3CN3C(=O)C[C@@H](Cc4ccccc4)C(=O)N(C)[C@@H](C)CNC(=O)C[C@H](Cc4ccc(Cl)cc4)N(C)C(=O)[C@H](COC)NC(=O)[C@@H]3C)cc2)n1C [Compound 282, (2S,5S,8S,13S,16R)-16-benzyl-1-(4-chloro-2-(4-(1-methyl-2-vinyl-1H-imidazol-5-yl)phenoxy)benzyl)-8-(4-chlorobenzyl)-5-(methoxymethyl)-2,7,13,14-tetramethyl-1,4,7,11,14-pentaazacyclooctadecane-3,6,10,15,18-pentaone]"
94.90,0.6,"COC[C@@H]1NC(=O)[C@H](CCN(C)C)N(Cc2ccc(Cl)cc2Oc2ccc(-c3cnc(CN(C)C)n3C)cc2)C(=O)C[C@@H](Cc2ccccc2)C(=O)N(C)[C@H]2CCCC[C@@H]2NC(=O)C[C@H](Cc2ccc(Cl)cc2)N(C)C1=O [Compound 29, (4S,7S,10S,14R,16aS,20aS)-14-benzyl-11-(4-chloro-2-(4-(2-((dimethylamino)methyl)-1-methyl-1H-imidazol-5-yl)phenoxy)benzyl)-4-(4-chlorobenzyl)-10-(2-(dimethylamino)ethyl)-7-(methoxymethyl)-5,16-dimethylhexadecahydrobenzo[l][1,4,7,11,14]pentaazacyclooctadecine-2,6,9,12,15(3H)-pentaone]"
51.67,3.1,"Cc1c(CN2CCCC2)cncc1-c1ccc(Oc2cc(Cl)ccc2CN2C(=O)C[C@@H](Cc3ccccc3)C(=O)N(C)[C@@H](C)CNC(=O)C[C@H](Cc3ccc(Cl)cc3)N(C)C(=O)[C@H](CO)NC(=O)[C@@H]2C)cc1 [Compound 146, (2S,5S,8S,13S,16R)-16-benzyl-1-(4-chloro-2-(4-(4-methyl-5-(pyrrolidin-1-ylmethyl)pyridin-3-yl)phenoxy)benzyl)-8-(4-chlorobenzyl)-5-(hydroxymethyl)-2,7,13,14-tetramethyl-1,4,7,11,14-pentaazacyclooctadecane-3,6,10,15,18-pentaone]"
42.24,249,"C[C@H]1C(=O)N[C@@H](COC(=O)C(C)(C)C)C(=O)N(C)[C@@H](Cc2ccc(Cl)cc2)CC(=O)N[C@H]2CCCC[C@@H]2N(C)C(=O)[C@H](Cc2ccccc2)CC(=O)N1Cc1ccc(Cl)cc1Oc1ccc(-c2cnc(CN(C)C)n2C)cc1 [Compound 226, ((4S,7S,10S,14R,16aS,20aS)-14-benzyl-11-(4-chloro-2-(4-(2-((dimethylamino)methyl)-1-methyl-1H-imidazol-5-yl)phenoxy)benzyl)-4-(4-chlorobenzyl)-5,10,16-trimethyl-2,6,9,12,15-pentaoxodocosahydrobenzo[l][1,4,7,11,14]pentaazacyclooctadecin-7-yl)methyl pivalate]"
95.83,2.1,"COC[C@@H]1NC(=O)[C@H](C)N(Cc2ccc(Cl)cc2Oc2ccc(-c3cnc(CN(C)C)n3C)cc2)C(=O)C[C@@H](Cc2ccc(C(F)F)cc2)C(=O)N(C)[C@@H](C)CNC(=O)C[C@H](Cc2ccc(Cl)cc2)N(C)C1=O [Compound 57, (2S,5S,8S,13S,16R)-1-(4-chloro-2-(4-(2-((dimethylamino)methyl)-1-methyl-1H-imidazol-5-yl)phenoxy)benzyl)-8-(4-chlorobenzyl)-16-(4-(difluoromethyl)benzyl)-5-(methoxymethyl)-2,7,13,14-tetramethyl-1,4,7,11,14-pentaazacyclooctadecane-3,6,10,15,18-pentaone]"
53.35,299,"COC[C@@H]1NC(=O)[C@H](C)N(Cc2ccc(Cl)cc2Oc2cccc(C(=O)NC3CCNCC3)c2)C(=O)C[C@@H](Cc2ccccc2)C(=O)N(C)[C@@H](C)CNC(=O)C[C@H](Cc2ccc(Cl)cc2)N(C)C1=O [Compound 113, 3-(2-(((2S,5S,8S,13S,16R)-16-benzyl-8-(4-chlorobenzyl)-5-(methoxymethyl)-2,7,13,14-tetramethyl-3,6,10,15,18-pentaoxo-1,4,7,11,14-pentaazacyclooctadecan-1-yl)methyl)-5-chlorophenoxy)-N-(piperidin-4-yl)benzamide]"

SMILES,Max % inhibition [%],IC50 [nM]
"COC[C@@H]1NC(=O)[C@H](C)N(Cc2ccc(Cl)cc2Oc2ccc(-c3cnc(CN4CCCC4)n3C)cc2)C(=O)C[C@@H](Cc2ccccc2)C(=O)N(C)[C@@H](CCCCNC(C)=O)CNC(=O)C[C@H](Cc2ccc(Cl)cc2)N(C)C1=O.O=C(O)C(F)(F)F [Compound 217, N-(4-((2S,5S,8S,13S,16R)-16-benzyl-1-(4-chloro-2-(4-(1-methyl-2-(pyrrolidin-1-ylmethyl)-1H-imidazol-5-yl)phenoxy)benzyl)-8-(4-chlorobenzyl)-5-(methoxymethyl)-2,7,14-trimethyl-3,6,10,15,18-pentaoxo-1,4,7,11,14-pentaazacyclooctadecan-13-yl)butyl)acetamide trifluoroacetate]",95.74,0.7
